Data as given in paper PMC5120204, “Identification of an orally active small-molecule PTHR1 agonist for the treatment of hypoparathyroidism” (Nature Communications, 2016).
Entries after “also recorded” stand apart in the source; their conditions may differ.

How the values were obtained:
Assay type in all cases: cell-based
rat PTHR2 = biological target: T1, rat PTHR2 (Rattus norvegicus, UniProt P70555); experiment: cAMP production assay in COS-7 cells expressing rat PTHR2
T1 construct: expressed in transfected cells; host or cells: COS-7 (transient)
Method: (§1) COS-7 cells (ATCC) were seeded into a 96-well flat-bottomed plate (1.4 × 10^4 cells per 100 μl per well) and incubated overnight. The next day, the COS-7 cells were transfected by adding 10 μl of a mixture of hPTHR1, hPTHR2 or mutant hPTHR1 plasmid, rat PTHR1 or rat PTHR2 plasmid, or empty vector (0.1 μg per well), FuGENE HD Transfection Reagent (0.4 μl per well, Promega), and Opti-MEM I Reduced Serum Medium (10 μl per well, Life Technologies) to each well. […] The plate was placed in a 37 °C constant-temperature water bath for 20 min to allow the reaction to proceed. After incubation, the liquid in the wells was discarded, the wells were washed with the assay medium (100 μl per well), and the plate was frozen on dry ice. Next, 40 μl of 50 mmol l^−1 HCl was added to each well, and the plate was stored in a freezer set at ≤−20 °C. The cAMP concentrations were measured by using a cAMP EIA kit (GE Healthcare). EC50 values were determined from three independent experiments in duplicate by a non-linear regression Emax model (JMP ver.9.0.2, SAS Institute). The geometric mean of the EC50 values obtained in three experiments in duplicate was calculated using Microsoft Office Excel 2007. […]

[1] = biological target: T2, hPTHR1–hPTHR2 chimeric receptors (C1, C2, C3) and mutant hPTHR1s (M24, M25, M26, M414V, P415L, L416V) (Homo sapiens, UniProt Q03431, A426C/A97V/D353E/D94P/DEL429-429/E431S/E93Y/E96D/G100Y/G350R/I363Y/K359I/K95Y/L436G/L446F/M425V/M445L/N348D/N358D/Q438E/Q440R/S101A/S341V/S356A/S370A/S433T/T349A/T427L/T430H/T435L/T99D/V334A/V338A/V340A/V342A/V365A/V372G/V432F/V439I/Y443C); conditions: cells expressing C3
T2 construct: expressed in transfected cells; host or cells: COS-7 (transient)
Method: as §1

hPTHR1 = biological target: T3, hPTHR1 (Homo sapiens, UniProt Q03431); experiment: cAMP production assay in COS-7 cells expressing hPTHR1; conditions: COS-7 cells expressing hPTHR1, 20 min
T3 construct: similar to that of cells expressing full-length hPTHR1; expressed in transfected cells; host or cells: COS-7 (transient, FuGENE HD)
T3 sequence (Q03431 27-593 E93Y/D94P/K95Y/E96D/A97V/T99D/G100Y/S101A): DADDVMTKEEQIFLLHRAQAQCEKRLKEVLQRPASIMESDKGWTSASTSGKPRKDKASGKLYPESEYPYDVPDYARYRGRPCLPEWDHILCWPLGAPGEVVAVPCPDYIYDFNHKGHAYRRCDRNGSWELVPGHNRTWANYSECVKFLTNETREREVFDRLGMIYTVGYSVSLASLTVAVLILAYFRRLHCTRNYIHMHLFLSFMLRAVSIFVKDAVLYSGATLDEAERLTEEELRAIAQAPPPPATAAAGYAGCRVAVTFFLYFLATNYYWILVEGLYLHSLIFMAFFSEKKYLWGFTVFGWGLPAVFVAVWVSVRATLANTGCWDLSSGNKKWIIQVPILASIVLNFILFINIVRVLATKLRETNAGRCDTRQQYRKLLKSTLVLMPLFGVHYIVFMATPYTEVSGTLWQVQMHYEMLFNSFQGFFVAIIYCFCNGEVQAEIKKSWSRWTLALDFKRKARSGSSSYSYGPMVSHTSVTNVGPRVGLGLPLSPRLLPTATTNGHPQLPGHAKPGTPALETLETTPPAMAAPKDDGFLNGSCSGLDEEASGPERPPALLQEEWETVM
Method: as §1

[2] = tested on: 12 class B GPCRs (CGRP, calcitonin, CRF1, CRF2α, GLP-1, GLP-2, glucagon, secretin, GHRH, PAC1, VPAC1 and VPAC2); experiment: Selectivity assay (Cerep), agonist and antagonist cAMP assays; conditions: at 1 or 10 μmol l^−1; activity defined as >25% of positive control
Method: Selectivity assays against class B GPCRs were performed by Cerep (France). Agonistic and antagonistic effects of PCO371 against a panel of 12 class B GPCRs (CGRP, calcitonin, CRF1, CRF2α, GLP-1, GLP-2, glucagon, secretin, GHRH, PAC1, VPAC1 and VPAC2) were examined at PCO371 concentrations of 1 and 10 μmol l^−1. The following cell lines were used; T47D (calcitonin), βTC6 (GLP-1), HT-29 (VPAC1, VPAC2), CHO (CGRP, CRF1, GLP-2, Glucagon, Secretin, GHRH and PAC1, recombinant), and HEK-293 (CRF-2, recombinant). Their antagonistic activity was measured in the presence of the control agonists shown in Supplementary Table 1. In agonist and antagonist experiments, intracellular cAMP levels were determined with the HTRF detection system. EC50 and IC50 values of control agonists or antagonists were calculated by non-linear regression analysis of the concentration-response curves generated with mean replicate values using Hill equation curve-fitting using the formula: equation (2).
Y=response, A=left asymptote of the curve, D=right asymptote of the curve, C=compound concentration, C50=EC50 or IC50, nH=slope factor. Agonistic activity of PCO371 at 1 or 10 μmol l^−1 was calculated as a per cent of the control agonist response; intracellular cAMP accumulation by PCO371 × 100/intracellular cAMP accumulation by the control agonist at the EC50 concentration. […]

T1 sequence (P70555 25-546): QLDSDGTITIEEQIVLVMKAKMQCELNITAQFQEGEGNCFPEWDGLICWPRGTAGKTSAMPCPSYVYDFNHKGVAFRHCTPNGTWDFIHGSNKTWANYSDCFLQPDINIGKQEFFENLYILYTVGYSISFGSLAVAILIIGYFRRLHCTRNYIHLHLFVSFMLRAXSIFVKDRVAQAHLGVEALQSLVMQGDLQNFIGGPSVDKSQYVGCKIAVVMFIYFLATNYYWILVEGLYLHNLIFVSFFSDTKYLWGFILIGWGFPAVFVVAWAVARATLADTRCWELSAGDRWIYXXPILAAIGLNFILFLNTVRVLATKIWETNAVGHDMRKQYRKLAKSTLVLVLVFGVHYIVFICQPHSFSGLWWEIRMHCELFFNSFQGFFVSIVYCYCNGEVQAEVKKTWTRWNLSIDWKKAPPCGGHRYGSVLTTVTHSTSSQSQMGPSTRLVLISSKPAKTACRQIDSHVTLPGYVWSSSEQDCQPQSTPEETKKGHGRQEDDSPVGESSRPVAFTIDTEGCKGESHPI
T2 sequence (Q03431 other isoform, or with tags, fused parts or gaps with the stated changes): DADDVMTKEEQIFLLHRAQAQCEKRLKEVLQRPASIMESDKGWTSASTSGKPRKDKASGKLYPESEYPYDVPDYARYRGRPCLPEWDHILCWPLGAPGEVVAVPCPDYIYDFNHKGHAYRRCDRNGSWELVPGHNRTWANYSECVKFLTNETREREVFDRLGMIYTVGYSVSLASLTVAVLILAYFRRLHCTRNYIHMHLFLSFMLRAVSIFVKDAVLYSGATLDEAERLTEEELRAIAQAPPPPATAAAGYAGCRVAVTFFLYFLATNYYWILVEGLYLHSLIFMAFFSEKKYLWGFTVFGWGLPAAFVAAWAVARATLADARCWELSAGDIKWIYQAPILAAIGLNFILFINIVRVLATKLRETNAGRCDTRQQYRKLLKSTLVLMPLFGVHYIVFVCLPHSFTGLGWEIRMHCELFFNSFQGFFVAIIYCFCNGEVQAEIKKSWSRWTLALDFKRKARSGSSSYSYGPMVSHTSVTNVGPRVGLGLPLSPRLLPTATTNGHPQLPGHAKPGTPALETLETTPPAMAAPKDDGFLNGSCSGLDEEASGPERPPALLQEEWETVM

Cc1cc(N2C(=O)NC(=O)C2(C)C)cc(C)c1CCS(=O)(=O)N1CCC2(CC1)N=C(c1ccc(OC(F)(F)F)cc1)NC2=O [PCO371, 1-{3,5-dimethyl-4-[2-({4-oxo-2-[4-(trifluoromethoxy)phenyl]-1,3,8-triazaspiro[4.5]dec-1-en-8-yl}sulfonyl)ethyl]phenyl}-5,5-dimethylimidazolidine-2,4-dione]
cAMP production (rat PTHR2): did not stimulate cAMP production
cAMP response [1]: responded well
EC50 (hPTHR1): 2.4 µM
agonistic and antagonistic activities against 12 class B GPCRs [2]: did not show agonistic or antagonistic activity; also recorded: did not exhibit activity
